Square brackets hold non-standard residues; d marks the D form. Peptide text beside a SMILES is read from it. * marks the point of attachment. Dolaproine = CO[C@@H]([C@@H]1CCCN1)[C@@H](C)C(=O)O; Dil = CC[C@H](C)[C@H](NC)[C@@H](CC(=O)O)OC; X1 = C[C@@H](N*)[C@@H](O)c1ccccc1; NMeV = CN[C@H](C(=O)O)C(C)C
How the values were obtained:
[1] = mice, assumed from reported plasma protein binding; cited from earlier work
Description: Table 1 A glossary of literature-derived and estimated parameters used for the MMAE PBPK model. | column: Value || Each tissue compartment was further divided into the vascular, endothelial cell, interstitial, and cellular sub-compartments, and vascular space was divided into plasma and blood cells, as shown in Figure 1b. We aimed to make the sub-compartment division the same as our previously published platform antibody PBPK model, and thus, one can easily connect MMAE and an antibody PBPK model to build an ADC PBPK model. The rapid distribution of MMAE between plasma, endothelial cells, and interstitial space was assumed, and thus, the distribution rate between these compartments was set as a valu ... || Plasma protein binding plays a vital role in tissue distribution of small molecule drugs. […] Based on the reported mice data, fu,p was assumed to be 0.2, and it was used as a concentration-independent parameter in the PBPK model. Of note, species-dependence of fraction unbound should be considered when further scaling up the current MMAE PBPK model to different species. Based on free hormone hypothesis, it was assumed that ...

[2] = bile-duct cannulated rat; cited from earlier work
Description: The scaling factors used were 135 ± 10 (10^6 cells/g) for hepatocytes and 41.9 ± 24.5 (mg/g) for microsome studies. Metabolic CL and non-metabolic (mostly biliary) CL were assumed to account for 40% and 60% of total CL. This assumption is based on a human mass balance study and a bile-duct cannulated rat study, which reported that ≈60% of MMAE is excreted unchanged in the bile. As such, the CLint extrapolated from in vitro study was 109–126 mL/min (hepatocyte) and 121–462 mL/min (microsome). The CLint approximated from our in vivo data was 146 mL/min using the convent ...

tumor cells = assay: Cell-level tumor disposition model parameters; parameters: species or system mice; conditions: Estimated by PBPK model
Description: Characterization and prediction of MMAE concentration at the site of action (i.e., tumor) is essential to establish a reliable exposure–efficacy relationship. Therefore, a cell-level tumor disposition model was incorporated in the MMAE PBPK model. […] Both pathways also depended on the vascular density and tumor size (Equation (20)). MMAE in the tumor extracellular space can influx into the tumor cell and bind to the tubulin. The tubulin-bound MMAE can dissociate from the target and efflux from tumor intracellular space into the extracellular space.
Physiological parameters for mice were obtained from our previously published PBPK model. Radius of the tumor blood capillary ( Rcap ), average distance between two capillaries ( Rkrough ), tumor void volume for MMAE ( ε ), P, D, and efflux rate of MMAE from the cells ( kout ) were obtained from the literature. […] The estimated parameters included (1) permeability coefficient ( PSi) in all tissues except the intestines, thymus, and other compartments for which observed data were not available, (2) intrinsic hepatic clearance ( CLint ), and (3) nonspecific uptake rate of MMAE into cancer cells ( kin) . The model was fitted to the data using the maximum likelihood estimation method in ADAPT version 5 (Biomedical Simulations Resource, University of Southern California, Los Angeles, CA, USA), using the variance model shown in Equation (23). […]

CC[C@H](C)[C@@H]([C@@H](CC(=O)N1CCC[C@H]1[C@H](OC)[C@@H](C)C(=O)N[C@H](C)[C@@H](O)c1ccccc1)OC)N(C)C(=O)[C@@H](NC(=O)[C@@H](NC)C(C)C)C(C)C [MMAE, Monomethyl auristatin E] (H-[NMeV]V[Dil][Dolaproine]-X1)
fu,p, fraction unbound in plasma [1]: 0.8
MMAE excreted unchanged in the bile [2]: ≈ 60%
kin, first-order influx rate of MMAE from extracellular to intracellular space (tumor cells): 0.185 h⁻¹
